Data: patent US20230041692A1, “NOVEL PEPTIDE HORMONES” (THE UNIVERSITY OF SYDNEY, priority 2019, published 2023)

System: C57BL/6J male mice
Assay: Crossover peptide injection trial in mice (food intake and body weight)
Type: in vivo
Conditions: intraperitoneal injection at 5pm, change measured 16 h after injection, C57BL/6J male mice at 14 weeks, compared to vehicle injection
Description: FIG. 6: Analysis of erusiolin producing cells, secretion in response to food and effects of erusiolin injection in mice. […] Staining is consistent with erusiolin positivity in rare enteroendocrine cell populations. […] Each line is one participant. […] Animals were randomised to the sequence of treatment days that were random in order, with washout days between injection treatment days. Peptides were injected at 5pm before the night phase and the change in body weight and food intake measured after 16 h. (n=14) ***P<0.001,*P<0.05. Erusiolin refers to the synthetic peptide of sequence APFLLEDPANQFLRL (SEQ ID NO: 2), DPP4-cleaved refers to the synthetic peptide of sequence FLLEDPANQFLRL (SEQ ID NO: 3).
In these experiments “erusiolin” refers to the synthetic peptide of sequence APFLLEDPANQFLRL (SEQ ID NO: 2), “DPP4-cleaved” refers to the synthetic peptide of sequence FLLEDPANQFLRL (SEQ ID NO: 3). These peptides were synthesised and purified as the TFA-salt by a commercial supplier (Genscript), which generated 10 mg of each peptide at >90% purity. TFA removal and formation of the HCL-peptide salt was performed by freeze-drying the peptide solution (in LC-grade H2O) for 16 h and resuspension in 500 uL of 10 mM HC1 in LC-grade H2O. This solution was then freeze-dried for 16 h. A total of three rounds of 10 mM HC1 resuspension and freeze-drying for 16 h were performed. After the final drying step, the peptides were resuspended in LC-grade H2O. The peptide solutions were analysed for TFA contamination and determination of the peptide concentration using FT-IR spectroscopy. No TFA contamination was observed and the final peptide concentrations were 5 mg/mL in LC-grade H2O. Peptides were diluted in vehicle (1 mg/ml mouse albumin in PBS) before injection.
C57BL/6J male mice at 14 weeks of age were treated with either vehicle, erusiolin, or the DPP4-cleaved peptide in a crossover trial study using intraperitoneal injection of the peptides. Each mouse was randomly allocated to a sequence of treatments. Each sequence had treatments in a random order. One treatment was performed per mouse per day and injections were at 5pm just before the night feeding period. Between each treatment day a washout day was included where no injection was performed to allow the previous days treatment to be degraded and minimise confounding effects. The food intake and body weight of each animal was measured just prior to injection and again 16 h after injection. This enable the calculation of the mass delta (change) for food intake and body mass. A repeated-measures one-way ANOVA was used to determine significance between the vehicle negative control treatment and the other treatments. Statistical analyses were performed using R (version 3.4.3) and processed data was plotted using Tableau (version 10.0.2). […]

APFLLEDPANQFLRL [erusiolin]
body weight: significant decrease
food intake: significant decrease

FLLEDPANQFLRL [DPP4-cleaved]
body weight: not significant or less significant
food intake: not significant or less significant
